The values that follow come from ChEMBL document CHEMBL1152338, “Discorhabdins revisited: cytotoxic alkaloids from southern australian marine sponges of the genera Higginsia and Spongosorites” (J Nat Prod, 2009).

Common to all, as to format: functional, cell-based
In one experiment the test system is MDA-MB-231. The experiment can be described thus: Cytotoxicity against human MDA-MB-231 cells.
Another experiment concerns HT-29. Briefly: Cytotoxicity against human HT-29 cells.
The next experiment has as its system A549. Briefly: Cytotoxicity against human A549 cells.

Converted amounts (≈) assume the structure as drawn.

On to `O=C1C[C@H]2S[C@H]3C[C@]2(C=C1Br)C1=C(N3)C(=O)c2[nH]cc3c2C1=NCC3` [DISCORHABDINE A], for which the IC50 in the experiment with MDA-MB-231, with HT-29 and in the experiment on A549 was 0.05 µg/mL (≈ 0.12 µM) each time.

Regarding `CN1CCc2cn(C)c3c2C1=CC(=O)C3=O` [DAMIRONE A], the IC50 in the experiment on MDA-MB-231, in the experiment with HT-29 and in the experiment on A549 was 5 µg/mL (≈ 23.1 µM) in each case.

On to `O=C1C2=C(C3=NCCc4c[nH]c1c43)[C@]13C=C(Br)[C@@H](O)C[C@H]1S[C@@H](C3)N2`, for which the IC50 in the experiment on MDA-MB-231, in the experiment with HT-29 and in the experiment with A549 was 0.1 µg/mL (≈ 0.239 µM) throughout.

Take `C[N+]1=C2C=C(NCCc3ccc(O)cc3)C(=O)c3[nH]cc(c32)CC1` [MAKALUVAMINE J]: the IC50 in the experiment on MDA-MB-231, in the experiment on HT-29 and with A549 was 5 µg/mL each time.

As to `O=C1C2=C3C4=[N+](CCc5c[nH]c1c54)[C@@H]1[C@H](O)C=C4S[C@@H](C[C@@]43[C@H]1O)N2`, the IC50 in the experiment on MDA-MB-231, in the experiment on HT-29 and with A549 was 0.1 µg/mL throughout.
